According to patent publication US5698535A, “SIN-1A cyclodextrin inclusion complexes” (priority 1994, dated 1997):
Like-named read-outs stand apart in the source and are kept apart here.

Legend:
[1] = prior art; cited from earlier work
[2] = tested on: rabbit platelet rich plasma; assay: Inhibition of U-46619 induced platelet aggregation in rabbit platelet rich plasma; type: cell-based
Description: (§1) The platelet aggregation was studied in rabbit and human platelet rich plasma (J. Cardiovasc. Pharmacol. 14 suppl. 11; page 120, 1989). In each batch of platelet rich rabbit plasma 8 dose response curves were registered with the thromboxane mimetic U-46619 (0.25-4.0 μM) in the presence of 0, 10^-7, 10^-6 or 10^-5 moles of SIN-1A/βCD complex. The dose response curves were performed in random sequence.

[3] = tested on: human platelet rich plasma; assay: Inhibition of U46619 induced platelet aggregation in human citrate platelet rich plasma; type: cell-based
Description: as §1
Both amplitude and slope of the aggregation curve were evaluated.

[4] = known; SIN-1 in solid state, SIN-1A open-chain tautomer; cited from earlier work

**Q.** For `CCN(CC)N(O)N=O` [DEANO, diethylamine-nitric oxide adduct], which half-life [1] is on record?
**A.** The half-life was “about 2 minutes”.

**Q.** What does the source list for `N=c1c[n+](N2CCOCC2)[n-]o1` [SIN-1, 3-morpholino-sydnonimine]?
**A.** IC50 ([2]; Oryctolagus cuniculus, rabbit platelet rich plasma, U46619 4 μM, n=7, read-out: pD2 (negative logarithm of concentration producing 50% inhibition) (converted)): 2.69 µM; IC50 ([3]; Table 4, amplitude of aggregation curve, read-out: pD2, 50% inhibition of aggregation, amplitude (converted)): 15.8 µM; IC50 ([3]; Table 4, slope of aggregation curve, read-out: pD2, 50% inhibition of aggregation, slope (converted)): 14.1 µM

**Q.** For `N#CCN(N=O)N1CCOCC1` [SIN-1A, N-morpholino-N-nitrosoaminoacetonitrile], which stability [4] is on record?
**A.** Its stability is “extremely unstable”.

**Q.** Which half-life [1] does the source give for `NCCCNCCCCN(CCCN)N(O)N=O` [SPNO] here?
**A.** Its half-life is 39 min.

**Q.** Which “induction of platelet aggregation” value ([2]; thromboxane mimetic) does the source give for `CCCCCC(O)/C=C/C1C2CC(CO2)C1C/C=C\CCCC(=O)O` (stereo not shown) [U46619] here?
**A.** Its value is “concentration-related aggregation”.
